Experiments:
[1] = Activation of SMN2 promoter in mouse NSC34 cells assessed as induction of beta-lactamase activity relative to nonactivated cells; type: functional
[2] = Activation of SMN2 promoter in mouse NSC34 cells assessed as induction of beta-lactamase activity; type: functional, cell-based
For activity in this document: test concentration or dose not given here.

Structure (SMILES)	Activity [1]	EC50 ([2]; Mus musculus, NSC-34) [nM]	EC50 ([2]; nsc34) [nM]
Nc1nc(N)c2c(OCc3ccc(F)c(F)c3)cccc2n1	1.8	14	
Nc1nc(N)c2c(Oc3ccc(Cl)cc3)cccc2n1	1.84	2060	
CC(Oc1cccc2nc(N)nc(N)c12)c1ccc(Cl)c(Cl)c1 (racemic)		320	
Nc1nc(N)c2c(OCC3CCN(Cc4ccc(Cl)cc4)CC3)cccc2n1	1.8	47	
Nc1nc(N)c2c(OCC3CCN(S(=O)(=O)c4cccc5ccccc45)CC3)cccc2n1	1.9	350	
Nc1nc(N)c2c(OCc3ccc(F)cc3F)cccc2n1	1.8	120	
Nc1nc(N)c2c(OCc3cc(F)ccc3F)cccc2n1	2	47	
Nc1nc(N)c2c(OCC3CCN(C(=O)c4ccc(F)cc4F)CC3)cccc2n1	2.4	89	
Nc1nc(N)c2c(OCC3CCN(C(=O)c4ccc(F)c(F)c4)CC3)cccc2n1	2.4	104	
Nc1nc(N)c2c(OCC3CCN(Cc4ccccc4Cl)CC3)cccc2n1	2	38	
CCCCCCCCCOc1cccc2nc(N)nc(N)c12	1.7	550	
CC(Oc1cccc2nc(N)nc(N)c12)c1cc(F)cc(F)c1 (racemic)		35	
CCCCOc1cccc2nc(N)nc(N)c12	2.2	140	
Cc1ccc(COc2cccc3nc(N)nc(N)c23)cc1	2.04	220	
CN1CCCCC1COc1cccc2nc(N)nc(N)c12 (stereo unspecified)	1.9	140	
Nc1nc(N)c2c(OCC3CCN(S(=O)(=O)c4ccc(F)c(F)c4)CC3)cccc2n1	2.1	40	
Nc1nc(N)c2c(OCC3CCCCC3)cccc2n1	1.9	2710	
Cc1cc(COc2cccc3nc(N)nc(N)c23)no1	2.2	280	
Nc1nc(N)c2c(OCc3cccc(C(F)(F)F)c3)cccc2n1	1.5	23	
Nc1nc(N)c2c(OCC3CCN(S(=O)(=O)c4ccc(F)cc4F)CC3)cccc2n1	2	82	
Nc1nc(N)c2c(OCc3cc(F)cc(F)c3)cccc2n1	1.9	14	
Cc1cccc(C(=O)N2CCC(COc3cccc4nc(N)nc(N)c34)CC2)c1	2.2	110	
Nc1nc(N)c2c(OCC3CCN(S(=O)(=O)c4ccccc4Cl)CC3)cccc2n1	2.1	897	

Structure (SMILES)	Activity [1]	EC50 ([2]; Mus musculus, NSC-34) [nM]	EC50 ([2]; nsc34) [nM]
Cc1ccccc1S(=O)(=O)N1CCC(COc2cccc3nc(N)nc(N)c23)CC1	2	545	
Cc1ccc(OCc2cccc3nc(N)nc(N)c23)cc1	2.2	410	
CC(Oc1cccc2nc(N)nc(N)c12)c1ccccc1C(F)(F)F (racemic)		1010	
CC(Oc1cccc2nc(N)nc(N)c12)c1ccc2c(c1)OCO2 (racemic)		1130	
Nc1nc(N)c2c(OCc3ccc(C(F)(F)F)cc3)cccc2n1	1.6	17	
C[C@H](Oc1cccc2nc(N)nc(N)c12)c1cccc2ccccc12		2390	
CC(C)COc1cccc2nc(N)nc(N)c12	1.8	180	
Cc1cccc(CN2CCC(COc3cccc4nc(N)nc(N)c34)CC2)c1	1.9	22	
Nc1nc(N)c2c(OCc3cccs3)cccc2n1	1.9	73	
Nc1nc(N)c2c(Oc3ccc4cnccc4c3)cccc2n1	2.3	1260	
Cc1ccccc1C(=O)N1CCC(COc2cccc3nc(N)nc(N)c23)CC1	2.5	160	
COc1cccc(COc2cccc3nc(N)nc(N)c23)c1	1.6	66	
Nc1nc(N)c2c(OCC3CCN(C(=O)c4ccc5ccccc5c4)CC3)cccc2n1	2.4	151	
Nc1nc(N)c2c(OCc3cccc(F)c3)cccc2n1	1.59	55	
Nc1nc(N)c2c(OCc3cc4ccccc4cn3)cccc2n1	2.3	220	
CCC(Oc1cccc2nc(N)nc(N)c12)c1ccc(Cl)cc1 (racemic)		170	
Cc1cccc(COc2cccc3nc(N)nc(N)c23)c1	1.7	120	
Nc1nc(N)c2c(COc3ccc(Cl)cc3)cccc2n1	2	190	
Nc1nc(N)c2c(OCc3ccc(F)cc3)cccc2n1	1.8	53	
Cl.Nc1nc(N)c2c(Oc3cccc4cnccc34)cccc2n1	2.04	1030	
Cc1cccc(S(=O)(=O)N2CCC(COc3cccc4nc(N)nc(N)c34)CC2)c1	1.8	221	
COc1ccc(OCc2cccc3nc(N)nc(N)c23)cc1	2.1	1400	
COc1ccccc1COc1cccc2nc(N)nc(N)c12	1.6	65	

Structure (SMILES)	Activity [1]	EC50 ([2]; Mus musculus, NSC-34) [nM]	EC50 ([2]; nsc34) [nM]
Nc1nc(N)c2c(OCc3cccnc3)cccc2n1	2.1	24	
COc1ccc(COc2cccc3nc(N)nc(N)c23)cc1	1.7	300	
Nc1nc(N)c2c(OCC3CCN(C(=O)c4cccc(F)c4F)CC3)cccc2n1	2.5	67	
Nc1nc(N)c2c(COc3ccccc3Cl)cccc2n1	2.2	1160	
C[C@H](Oc1cccc2nc(N)nc(N)c12)c1ccccc1		60	
Nc1nc(N)c2c(Oc3ccc(F)cc3)cccc2n1	1.7	1320	
CC(Oc1cccc2nc(N)nc(N)c12)c1ccccc1 (racemic)		240	
C[C@@H](Oc1cccc2nc(N)nc(N)c12)c1ccccc1		220	
Nc1nc(N)c2c(OCc3ccccn3)cccc2n1	1.9	250	
C[C@H](Oc1cccc2nc(N)nc(N)c12)c1ccc2ccccc2c1		440	
Cc1ccc(S(=O)(=O)N2CCC(COc3cccc4nc(N)nc(N)c34)CC2)cc1	1.9	551	
CC(Oc1cccc2nc(N)nc(N)c12)c1ccc(C(F)(F)F)cc1 (racemic)		50	
CC(Oc1cccc2nc(N)nc(N)c12)c1cccc(F)c1 (racemic; form 2)		50	
Nc1nc(N)c2c(OC3(c4cccc(Cl)c4)CC3)cccc2n1		290	
CC(C)(Oc1cccc2nc(N)nc(N)c12)c1cccc(Cl)c1		2330	
CC(Oc1cccc2nc(N)nc(N)c12)c1ccc(Cl)cc1 (racemic)		80	
C[C@@H](Oc1cccc2nc(N)nc(N)c12)c1cccc(Cl)c1		32	
CC(Oc1cccc2nc(N)nc(N)c12)c1cccc(C(F)(F)F)c1 (racemic)		47	
CC(Oc1cccc2nc(N)nc(N)c12)c1cccc(F)c1 (racemic; form 1)			55
Nc1nc(N)c2c(OC3(c4cccc(Cl)c4)CCCCC3)cccc2n1		1710	
CC(C)(C)C(Oc1cccc2nc(N)nc(N)c12)c1ccc(Cl)cc1 (racemic)		7760	
CC(Oc1cccc2nc(N)nc(N)c12)c1ccccc1Cl (racemic)		290	
CC(Oc1cccc2nc(N)nc(N)c12)c1ccc(F)cc1 (racemic)		18	
